Experimental findings from US11390604B2 (Hoffmann-La Roche Inc., priority 2019, dated 2022) are described below.

Structures can show the parent of a compound that is named as a salt.

One assay has as its system Acinetobacter baumannii ATCC 17961. The assay is described as follows: Antimicrobial susceptibility testing: 90% growth inhibitory concentration (IC90) determination. Format: cell-based. As to conditions: ATCC17961, Acinetobacter baumannii ATCC 17961, Iso-Sensitest broth, read-out: ATCC 17961 IC90. In a few lines: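 Broth microdilution in Iso-Sensitest medium, twofold series (e.g. 50 to 0.097 μM final), ~5×10^5 CFU/ml inoculum, 35±2 °C. OD600 read every 20 min over 16 h. IC90 derived from growth inhibition during logarithmic phase.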
In the case of `Cc1nc(Cn2cc(-c3cnc(C(=O)Nc4ccc(C(=O)N5CCN(C(=O)C6CCNCC6)CC5)c(Cl)c4)n3C)c(C(F)(F)F)n2)no1` [Example 106, N-[3-chloro-4-[4-(piperidine-4-carbonyl)piperazine-1-carbonyl]phenyl]-1-methyl-5-[1-[(5-methyl-1,2,4-oxadiazol-3-yl)methyl]-3-(trifluoromethyl)pyrazol-4-yl]imidazole-2-carboxamide;hydrochloride], the IC90 came out at 848 nM. Same read-out and setting: next, `Cn1c(-c2cn(CC3(C)CSC3)nc2C(F)(F)F)cnc1C(=O)Nc1ccc(C(=O)N2CCN(C(=O)C3CCNCC3)CC2)c(Cl)c1` [Example 107, N-[3-chloro-4-[4-(piperidine-4-carbonyl)piperazine-1-carbonyl]phenyl]-1-methyl-5-[1-[(3-methylthietan-3-yl)methyl]-3-(trifluoromethyl)pyrazol-4-yl]imidazole-2-carboxamide;hydrochloride]: 444 nM; `Cn1c(-c2cn(C3CC4(CC4)C3)nc2C(F)(F)F)cnc1C(=O)Nc1ccc(C(=O)N2CCN(C(=O)C3CCNCC3)CC2)c(Cl)c1` [Example 108, N-[3-chloro-4-[4-(piperidine-4-carbonyl)piperazine-1-carbonyl]phenyl]-1-methyl-5-[1-spiro[2.3]hexan-5-yl-3-(trifluoromethyl)pyrazol-4-yl]imidazole-2-carboxamide;hydrochloride]: 248 nM; `Cn1c(-c2cn(CCOC(F)F)nc2C(F)(F)F)cnc1C(=O)Nc1ccc(C(=O)N2CCN(C(=O)C3CCNCC3)CC2)c(Cl)c1` [Example 109, N-[3-chloro-4-[4-(piperidine-4-carbonyl)piperazine-1-carbonyl]phenyl]-5-[1-[2-(difluoromethoxy)ethyl]-3-(trifluoromethyl)pyrazol-4-yl]-1-methylimidazole-2-carboxamide;hydrochloride]: 473 nM. On to `Cn1c(-c2cn(CC3CC3(F)F)nc2C(F)(F)F)cnc1C(=O)Nc1ccc(C(=O)N2CCN(C(=O)C3CCNCC3)CC2)c(Cl)c1` (stereo not shown) [Example 110, N-[3-chloro-4-[4-(piperidine-4-carbonyl)piperazine-1-carbonyl]phenyl]-5-[1-[(2,2-difluorocyclopropyl)methyl]-3-(trifluoromethyl)pyrazol-4-yl]-1-methylimidazole-2-carboxamide;hydrochloride], for which the IC90 was 260 nM. For the molecule `Cn1c(-c2cn(CC3CC(F)(F)C3)nc2C(F)(F)F)cnc1C(=O)Nc1ccc(C(=O)N2CCN(C(=O)C3CCNCC3)CC2)c(Cl)c1` [Example 111, N-[3-chloro-4-[4-(piperidine-4-carbonyl)piperazine-1-carbonyl]phenyl]-5-[1-[(3,3-difluorocyclobutyl)methyl]-3-(trifluoromethyl)pyrazol-4-yl]-1-methylimidazole-2-carboxamide;hydrochloride], the IC90 turned out to be 344 nM. `Cn1c(-c2cn(CC3CC3)nc2C(F)(F)F)cnc1C(=O)Nc1ccc(C(=O)N2CCN(C(=O)C3CCNCC3)CC2)c(Cl)c1` [Example 112, N-[3-chloro-4-[4-(piperidine-4-carbonyl)piperazine-1-carbonyl]phenyl]-5-[1-(cyclopropylmethyl)-3-(trifluoromethyl)pyrazol-4-yl]-1-methylimidazole-2-carboxamide;hydrochloride]: the IC90 came to 274 nM.

Regarding `Cn1c(-c2cn(CC3CCC3)nc2C(F)(F)F)cnc1C(=O)Nc1ccc(C(=O)N2CCN(C(=O)C3CCNCC3)CC2)c(Cl)c1` [Example 113, N-[3-chloro-4-[4-(piperidine-4-carbonyl)piperazine-1-carbonyl]phenyl]-5-[1-(cyclobutylmethyl)-3-(trifluoromethyl)pyrazol-4-yl]-1-methylimidazole-2-carboxamide;hydrochloride], the IC90 worked out at 187 nM. The same measure, in the same setting: next, `CCn1cc(-c2cnc(C(=O)Nc3ccc(C(=O)N4CCN(C(=O)C5CCNCC5)CC4)c(Cl)c3)n2C)c(C(F)(F)F)n1` [Example 114, N-[3-chloro-4-[4-(piperidine-4-carbonyl)piperazine-1-carbonyl]phenyl]-5-[1-ethyl-3-(trifluoromethyl)pyrazol-4-yl]-1-methylimidazole-2-carboxamide;hydrochloride]: 339 nM; `Cn1cc(-c2cnc(C(=O)Nc3ccc(C(=O)N4CCN(C(=O)C5CCNCC5)CC4)c(Cl)c3)n2C)c(C(F)(F)F)n1` [Example 115, N-[3-chloro-4-[4-(piperidine-4-carbonyl)piperazine-1-carbonyl]phenyl]-1-methyl-5-[1-methyl-3-(trifluoromethyl)pyrazol-4-yl]imidazole-2-carboxamide;hydrochloride]: 1250 nM. On to `Cn1c(-c2cn(C(F)F)nc2C(F)(F)F)cnc1C(=O)Nc1ccc(C(=O)N2CCN(C(=O)C3CCNCC3)CC2)c(Cl)c1` [Example 116, N-[3-chloro-4-[4-(piperidine-4-carbonyl)piperazine-1-carbonyl]phenyl]-5-[1-(difluoromethyl)-3-(trifluoromethyl)pyrazol-4-yl]-1-methylimidazole-2-carboxamide;hydrochloride], for which the IC90 amounted to 487 nM.

On to `CC(C#N)n1cc(-c2cnc(C(=O)Nc3ccc(C(=O)N4CCN(C(=O)C5CCNCC5)CC4)c(Cl)c3)n2C)c(C(F)(F)F)n1` (stereo not shown) [Example 117, N-[3-chloro-4-[4-(piperidine-4-carbonyl)piperazine-1-carbonyl]phenyl]-5-[1-(1-cyanoethyl)-3-(trifluoromethyl)pyrazol-4-yl]-1-methylimidazole-2-carboxamide;formic acid], for which the IC90 worked out at 427 nM. As for `Cc1cc(NC(=O)c2ncc(-c3cn(CC#N)nc3C(F)(F)F)n2C)cc(F)c1C(=O)N1CCN(C(=O)[C@H]2C[C@H](N)C2)CC1` [Example 118, N-[4-[4-(3-aminocyclobutanecarbonyl)piperazine-1-carbonyl]-3-fluoro-5-methylphenyl]-5-[1-(cyanomethyl)-3-(trifluoromethyl)pyrazol-4-yl]-1-methylimidazole-2-carboxamide], the IC90 is 884 nM. For the molecule `Cc1cc(NC(=O)c2ncc(-c3cn(CC#N)nc3C(F)(F)F)n2C)cc(F)c1C(=O)N1CCN(C(=O)[C@H]2CC[C@@H](N)C2)CC1` [Example 119, N-[4-[4-[(1S,3R)-3-aminocyclopentanecarbonyl]piperazine-1-carbonyl]-3-fluoro-5-methylphenyl]-5-[1-(cyanomethyl)-3-(trifluoromethyl)pyrazol-4-yl]-1-methylimidazole-2-carboxamide], the IC90 is 769 nM. In the case of `Cc1cc(NC(=O)c2ncc(-c3cn(CC#N)nc3C(F)(F)F)n2C)cc(F)c1C(=O)N1CCN(C(=O)C2(O)CCCNC2)CC1` (stereo not shown) [Example 120, 5-[1-(cyanomethyl)-3-(trifluoromethyl)pyrazol-4-yl]-N-[3-fluoro-4-[4-(3-hydroxypiperidine-3-carbonyl)piperazine-1-carbonyl]-5-methylphenyl]-1-methylimidazole-2-carboxamide], the IC90 was determined as 2250 nM. Same read-out and setting: next, `Cc1cc(NC(=O)c2ncc(-c3cn(CC#N)nc3C(F)(F)F)n2C)cc(F)c1C(=O)N1CCN(C(=O)[C@H](C)N)CC1` [Example 121, N-[4-[4-[(2S)-2-aminopropanoyl]piperazine-1-carbonyl]-3-fluoro-5-methylphenyl]-5-[1-(cyanomethyl)-3-(trifluoromethyl)pyrazol-4-yl]-1-methylimidazole-2-carboxamide]: 970 nM. The same measure, in the same setting: with `Cc1cc(NC(=O)c2ncc(-c3cn(CC#N)nc3C(F)(F)F)n2C)cc(F)c1C(=O)N1CCN(C(=O)[C@H]2CCNC2)CC1` [Example 122, 5-[1-(cyanomethyl)-3-(trifluoromethyl)pyrazol-4-yl]-N-[3-fluoro-5-methyl-4-[4-[(3S)-pyrrolidine-3-carbonyl]piperazine-1-carbonyl]phenyl]-1-methylimidazole-2-carboxamide] the figure was 978 nM. On the same count and under the same terms, with `Cc1nc(Cn2cc(-c3cnc(C(=O)Nc4ccc(C(=O)NC5CC(N)C5)c(Cl)c4)n3C)c(C(F)(F)F)n2)cs1` (stereo not shown) [Example 124, N-[4-[(3-aminocyclobutyl)carbamoyl]-3-chlorophenyl]-1-methyl-5-[1-[(2-methyl-1,3-thiazol-4-yl)methyl]-3-(trifluoromethyl)pyrazol-4-yl]imidazole-2-carboxamide;hydrochloride] the figure was 1800 nM.

As for `Cn1c(-c2cn(C3CCC3)nc2C(F)(F)F)cnc1C(=O)Nc1ccc(C(=O)NC2CC(N)C2)c(Cl)c1` (stereo not shown) [Example 125, N-[4-[(3-aminocyclobutyl)carbamoyl]-3-chlorophenyl]-5-[1-cyclobutyl-3-(trifluoromethyl)pyrazol-4-yl]-1-methylimidazole-2-carboxamide;hydrochloride], the IC90 is 480 nM. In the case of `CCc1cc(NC(=O)c2ncc(-c3cn(CC#N)nc3C(F)(F)F)n2C)ccc1C(=O)N1CCN(C(=O)C2CCN(C)CC2)CC1` [Example 127, 5-[1-(cyanomethyl)-3-(trifluoromethyl)pyrazol-4-yl]-N-[3-ethyl-4-[4-(1-methylpiperidine-4-carbonyl)piperazine-1-carbonyl]phenyl]-1-methylimidazole-2-carboxamide;formic acid], the IC90 is 681 nM. The same measure, in the same setting: with `CCc1cc(NC(=O)c2ncc(-c3cn(CC#N)nc3C(F)(F)F)n2C)ccc1C(=O)N1CCN(C(=O)C2CCNCC2)CC1` [Example 128, 5-[1-(cyanomethyl)-3-(trifluoromethyl)pyrazol-4-yl]-N-[3-ethyl-4-[4-(piperidine-4-carbonyl)piperazine-1-carbonyl]phenyl]-1-methylimidazole-2-carboxamide;formic acid] the figure was 1040 nM.

Staying with this assay, now noted: Acinetobacter baumannii ATCC 17961, Iso-Sensitest broth, read-out: ATCC 17961 IC90.
As to `C=CCn1cc(-c2cnc(C(=O)Nc3ccc(C(=O)NC4CC(N)C4)c(Cl)c3)n2C)c(C(F)(F)F)n1` (stereo not shown) [Example 126, N-[4-[(3-aminocyclobutyl)carbamoyl]-3-chlorophenyl]-1-methyl-5-[1-prop-2-enyl-3-(trifluoromethyl)pyrazol-4-yl]imidazole-2-carboxamide;2,2,2-trifluoroacetic acid], the IC90 was 293 nM.

For orientation: IC90 means the point of the concentration-response curve where the effect stands at 90%.
